Experimental data: US7410971B2, “1,2-di(cyclic)substituted benzene compounds” (Eisai R&D Management Co., Ltd., priority 2003, dated 2008)
pIC50: −log10 of the molar value.

Tests used:
[1] = system: Jurkat cells; experiment: Jurkat cell adhesion system (adhesion to immobilized human fibronectin, PMA-stimulated); type: cell-based; settings: concentration inhibiting by 50% the PMA-stimulated increase in number of adhered Jurkat cells on human fibronectin
Method: Evaluation of Compounds in Jurkat Cell Adhesion System
<Immobilization of Human Fibronectin in 96-Well Plate>
Human fibronectin (Becton Dickinson Biosciences) was diluted with phosphate-buffered saline (hereinafter abbreviated as PBS; Sigma) to 0.1-0.01 μg/ml, and the diluted solution was added to a 96-well plate (Becton Dickinson) at 50μ/well, and allowed to stand overnight at 4° C. On the following day, the supernatant was removed from the plate, and then PBS containing 1% bovine serum albumin (hereinafter abbreviated as BSA; Sigma) was added thereto at 100 μl/well and incubation was performed at 37° C. for 2 hours in a CO2 incubator (Hirasawa).
The supernatant was removed from each plate and Jurkat cells suspended in RPMI-1640 (Sigma) containing 1 mg/ml BSA were added at 80 μl/well for 2.5×10^5 cells/well. The compound diluted to different concentrations with RPMI-1640 containing 1 mg/ml BSA was immediately added at 10 μl/well, and then 100 nM phorbol myristate acetate (hereinafter abbreviated as PMA; Sigma) in RPMI-1640 containing 1 mg/ml BSA was added at 10 μl/well and the plate was incubated in a CO2 incubator at 37° C. for 45-60 minutes. The supernatant was removed from the plate and each well was washed several times with 100 μl/well of RPMI-1640, after which 50 mM citrate buffer (pH 5.0) containing 3.75 mM p-nitrophenol-N-acetyl-β-D-glucosaminide (Sigma) and 0.25% Triton X-100 (Sigma) were added at 60 μl/well, and the mixture was placed in a CO2 incubator and incubated at 37° C. for 45 minutes. After incubation, 50 mM glycine buffer (pH 10.4) containing 5 mM EDTA was added at 90 μl/well, and the absorbance at 405 nm was measured with an EL340 Automated Microplate Reader (BIO-TEK) to determine the adhered cell count. The concentration of each compound which inhibited the increase in the number of adhered cells by the PMA-stimulation by 50% was recorded as the IC50 (μM).

[2] = system: human peripheral blood neutrophils; experiment: Human peripheral blood neutrophil adhesion system (adhesion to immobilized HUVEC, PMA-stimulated); type: cell-based; settings: concentration inhibiting by 50% the PMA-stimulated increase in number of adhered BCECF-AM labeled neutrophils on HUVEC immobilized plate
Method: Evaluation of Compounds in Human Peripheral Blood Neutrophil Adhesion System
<Preparation of Human Peripheral Blood Neutrophils>
To a plastic centrifugation tube containing 100 units of heparin sodium (Shimizu Pharmaceutical) was added 25 ml of fresh blood sampled from a healthy human. After adding and mixing therewith 8 ml of physiological saline (Otsuka Pharmaceutical) containing 6% Dextran (Nacalai), the mixture was allowed to stand room temperature for 45 minutes for sedimentation of the erythrocytes. The resultant supernatant was transferred to another plastic centrifugation tube and combined with an equivalent volume of phosphate-buffered saline (hereinafter abbreviated as PBS; Sigma), and then centrifuged at 1600 rpm for 7 minutes at room temperature. The obtained hematocyte fraction was suspended in 4 ml of PBS, and the suspension was superposed on 4 ml of Ficoll-Paque™ PLUS (Amersham Biosciences). The resultant bilayer liquid was centrifuged at 2000 rpm for 30 minutes at room temperature, after which the supernatant was removed and the precipitate was suspended in 10 ml of PBS and centrifuged at 1200 rpm for 7 minutes, and the supernatant was removed. The resulting precipitate was suspended in 0.5 ml of PBS again, and then 10 ml of distilled water (Otsuka Pharmaceutical) was added, 0.5 ml of an aqueous solution containing 3 M NaCl was immediately added to restore isotonicity, the mixture was centrifuged at 1200 rpm for 7 minutes, and the obtained precipitate was suspended in PBS containing 1 mg/ml bovine serum albumin (hereinafter abbreviated as BSA; Sigma) again and stored in ice until being used for the experiment.
<Fluorescent Labeling of Human Peripheral Blood Neutrophils>
The obtained neutrophils were suspended in PBS containing 1 mg/ml BSA at 2×10^7 cells/ml. BCECF-AM (Dojin) was added to a final concentration of 5 μM, and the mixture was incubated at 37° C. for 45 minutes. It was then rinsed twice with PBS containing 1 mg/ml BSA by centrifugation, suspended again in PBS containing 1 mg/ml BSA at 5×10^7 cells/ml, and stored in ice until use.
<Preparation of HUVEC Immobilized Plate>
Human umbilical vein endothelial cells (hereinafter abbreviated as HUVEC) were suspended in MCDB131 medium (Chlorella Industries) containing 10% fetal calf serum and 30 μg/ml endothelial cell growth supplement (Becton Dickinson Bioscience). The suspension was added at 7.5×10^3 cells/well to a 96-well plate (Iwaki) immobilized with type I collagen, and cultured for 3 days in a CO2 incubator (Hirasawa). Upon confirming confluency of the cells, the supernatant was discarded, the plate was rinsed twice with PBS, and then PBS containing 0.1% glutaraldehyde (Kanto Kagaku) was added at 100 μl/well and the HUVECs were immobilized for 5 minutes. The supernatant was discarded and the plate was washed twice with PBS, and then PBS was added at 100 μl/well and the mixture was stored at 4° C. until use.
To 6.5 ml of RPMI-1640 medium (Sigma) containing 1 mg/ml of BSA were added 0.5 ml of a suspension of BCECF-AM labeled neutrophils at 5×10^7/ml stored in ice, which was mixed, and the mixture was added at 80 μl/well to a HUVEC immobilized plate. […] The supernatant was removed from the plate, which was then washed several times with RPMI-1640 at 100 μl/well, and then PBS containing 0.1% NP-40 (Calbiochem) was added thereto at 100 μl/well and the fluorescent intensity was measured with an ARVO™SX 1420 multi label counter (Wallac) to determine the number of adhered cells. […]

[3] = system: colon-infiltrating neutrophils (myeloperoxidase enzyme activity); experiment: Oxazolone-induced colon neutrophil infiltration model; type: in vivo, Balb/c mice; settings: Mus musculus, po, 30 mg/kg orally 30 minutes prior to intrarectal oxazolone, colon myeloperoxidase activity 4 hours after, vs oxazolone control group, read-out: Inhibitory rate (%)
Method: Evaluation of Compounds in Oxazolone-Induced Colon Neutrophil Infiltration Model
<Sensitization with Oxazolone>
Five- to six-week-old male Balb/c mice (Charles River Japan) were shaven at the abdomen to an approximately 2 cm square area. A 100% ethanol solution containing 3% 4-ethoxymethylene-2-phenyl-2-oxazolin-5-one (hereinafter referred to as “oxazolone”; Sigma) was applied at 150 μl onto the abdomen of each mouse.
<Preparation of Emulsion Containing Oxazolone>
Distilled water (Otsuka Pharmaceutical) was added in an equivalent volume to 100% peanut oil (Kanto Kagaku) containing 1% oxazolone, and the components were vigorously mixed with a glass syringe (Top Co.), to prepare an emulsion containing 0.5% oxazolone.
<Induction with Oxazolone>
The mice were fasted on the 3rd day after oxazolone sensitization, and were injected with 100 μl of the emulsion containing 0.5% oxazolone prepared in the way described above intrarectally at a site approximately 3 cm from the anus under ether anesthesia on the 4th day.
<Colon-Infiltrating Neutrophil Assay>
Each compound was suspended or dissolved in an aqueous solution containing 0.5% methyl cellulose (Wako), and orally administered at 30 mg/kg 30 minutes prior to the intrarectal injection of oxazolone emulsion. Four hours after the intrarectal injection of oxazolone, mice were sacrificed by cervical dislocation, and colons were extirpated, dissected in the longitudinal direction, washed with physiological saline, and transferred to ice-cooled plastic centrifugation tubes. After adding 1 ml of 50 mM potassium phosphate buffer (hereinafter abbreviated as KPB) (pH 6.0) to the tube, and the tissue were homogenized with PHYSCOTRON (Microtec Nition Co., Ltd.), 2 ml of 50 mM KPB (pH 6.0) was added and the mixture was centrifuged at 3000 rpm, 4° C. for 10 minutes and the supernatant was removed. To the resultant precipitate was added 1 ml of 50 mM KPB (pH 6.0) containing 0.5% hexadecyltrimethyl-ammonium bromide (Sigma), and freeze-thawed 3 to 5 times using liquid nitrogen and hot water, centrifuged at 3000 rpm, 4° C. for 10 minutes to yield a supernatant. The myeloperoxidase enzyme activity in the supernatant was assayed in the following manner. Specifically, to 10 μl of the obtained supernatant was added 200 μl of 50 mM KPB (pH6.0) containing 0.017% o-dianisidine (Sigma) and 0.0005% hydrogen peroxide (Wako), incubated at 37° C., and the change in absorbance at 450 nm was continuously measured for 1 minute using an EL340 Automated Microplate Reader (BIO-TEK) in kinetic mode. The units were the rate of change in absorbance per minute (mO.D./min.). With regard to the effect of each compound, the inhibitory rate (%) with respect to the oxazolone control group, i.e. the oxazolone-injected/compound-free group, was shown in the table 3.

[4] = system: DSS-induced colitis; experiment: DSS-induced colitis model; type: in vivo, Balb/c mice; settings: 30 mg/kg orally once a day for 5-7 successive days; 1-3% DSS in water for 5-7 days
Text: Evaluation of Compounds in DSS-Induced Colitis Model
A 1-3% solution of dextran sulfate sodium (hereinafter abbreviated as DSS; ICN) in purified water (Otsuka Pharmaceutical) was fed freely to 6- to 7-week-old male Balb/c mice (Charles River Japan) for 5-7 days to induce colitis. Disease Activity Index (hereinafter abbreviated as DAI) scored based on fecal hardness, blood content in feces and body weight change, the number of neutrophils infiltrating the colon and the length of the colon were used as indexes to evaluate compounds. Each compound was suspended or dissolved in an aqueous solution containing 0.5% methyl cellulose (Wako), and orally administered at 30 mg/kg once a day, for 5-7 successive days.

SMILES	pIC50 [1]	pIC50 [2]	inhibition in vivo at 30 mg/kg [3]	improvement in comparison with the DSS control group (DAI, number of neutrophils infiltrating the colon, length of the colon) [4]
CCCCN1CCN(c2ccc(N3CCC(OC)CC3)cc2C2=CCC(C(C)(C)C)CC2)CC1.Cl (racemic) [Example 7, 1-Butyl-4-[2-(4-t-butylcyclohex-1-enyl)-4-(4-methoxypiperidin-1-yl)phenyl]piperazine hydrochloride]	5.60	5.01	37%	
CCCCN1CCN(c2ccccc2C2CC(C)(C)CC(C)(C)C2)CC1.Cl [Example 8, 1-Butyl-4-[2-(3,3,5,5-tetramethylcyclohexyl)phenyl]piperazine hydrochloride]	5.66	4.65	22%	
CCNC(=O)CN1CCN(c2ccccc2C2CCC(C(C)(C)C)CC2)CC1.Cl (centres unmarked) [Example 10, 2-{4-[2-(4-t-Butylcyclohexyl)phenyl]piperazin-1-yl}-N-ethylacetamide hydrochloride]	5.33			
CCCCN1CCN(c2ccccc2C2CCCCC2)CC1.Cl [Example 14, 1-Butyl-4-(2-cyclohexylphenyl)piperazine hydrochloride]	5.31	4.71	64%	
CCCCN1CCN(c2ccccc2C2CCC(C(C)(C)C)CC2)CC1.Cl (centres unmarked) [Example 15, 1-Butyl-4-[2-(4-t-butylcyclohexyl)phenyl]piperazine hydrochloride]	5.64			particularly good improvement
CCCCN1CCN(c2ccc(N3CCC(OC)CC3)cc2C2CC(C)(C)CC(C)(C)C2)CC1.Cl [Example 32, 1-Butyl-4-[4-(4-methoxypiperidin-1-yl)-2-(3,3,5,5-tetramethylcyclohexyl)phenyl]piperazine hydrochloride]			51%	particularly good improvement
